Results on five molecules are retold here after patent publication US10376456B2, “Concentrated and self-preserving compositions of mild surfactants for transparent and skin-pH personal care formulations” (GALAXY SURFACTANTS LTD., priority 2015, dated 2019).

The nature of data set [1]: Critical micelle concentration (CMC). Type of data set: physicochemical. The source says:
It is well established that in case of surfactants, lower the CMC value, milder the surfactants. Ionic surfactant molecules interact with proteins through charge-charge interaction since the charge density on the head group is high. Whenever aggregates are formed the charge density of micelle is much lesser as the charge gets spread over the large micelle. […] It can be seen from Table 2 that CMC of anionic sodium lauryl sulphate (SLS) is the highest and zwitterionic (electrically neutral) cocoamidopropyl (CAPB) is the lowest.

Data set [2] has as its system subject's volar arm. As to the kind of experiment: Corneometry analysis of skin hydration after repeated application of body-wash. It is filed as in vivo. The settings on record: body-wash 12% active matter, 2% PEG-150 distearate, twice a day for fifteen days, 50% RH, 20° C. An excerpt:
Removal of Natural Moisturizing Factor (NMF) from stratum corneum during cleansing leads to a lower capacitance reading since there is less secondary bound water in the skin's corneocytes. […] The corneometer findings are consistent with the TEWL findings.

`CCCCCCCCCCCCOS(=O)(=O)[O-].[Na+]` [SLS, sodium lauryl sulfate] registered a CMC in data set [1] of 5.90 mM/liter. On the same count and under the same terms, next, Sodium cocoyl isethionate: 0.14 mM/liter; sodium cocoyl glycinate: 1.01 mM/liter. For the molecule “Sodium lauryl ether sulfate [sodium lauryl ether sulphate (2 EO)]”, the “Skin moisture level (corneometry)” value in data set [2] was “dry the stratum corneum”. Cocoamidopropyl betaine [CAPB] registered a CMC in data set [1] of 0.06 mM/liter.
